Assay results published in US4168313A, “Phthalidyl 2-(3'-trifluoromethyl-anilino)-pyridine-3-carboxylate and its salts” (priority 1978, dated 1979).

Assays:
[1] = system: gastric epithelium; test: method of Goldemberg, ulceration by pylorus ligature (ulcerogenic effect); assay type: in vivo, Sprague-Dowley rats; details: for ulceration score Increase: increase over control (distilled water) score 2.0, mg/Kg: phenylbutazone 75, acid 47, acetylsalicylic acid 200; for ulceration Score: score 0=no hemorrhagic spots to 6=perforated ulcer, control (distilled water) 2.0, mg/Kg: phenylbutazone 75, acid 47, acetylsalicylic acid 200, phthalidyl ester 69; for ulcerogenic effect (in words): summary statement, b45 relative to the respective acid
Procedure: 2 To compare the effect on ulcer of the new compound regarding to other antiinflammatory drugs, the method of Goldemberg (ulceration by pylorus ligature) (Arzneim. Forsch. (Drug Res.) 26, 3, 1976) to Sprague-Dowley rats (400-600 g of weight), was performed. The ulceration of the gastric epithelium was observed and evaluated in accordance to the following score; 0=no hemorrhagic spots; 1=some isolated hemorrhagic spots; 2=redness of the gastric epithelium; 3=1 to 5 small ulcers with a diameter greater than 3 mm; 6=perforated ulcer.

[2] = system: carraghenine-provoked aedema of the paw of rat; test: carraghenine-provoked aedema of the paw of rat (antiinflammatory activity); assay type: in vivo; details: for % AEDEMA INHIBITION 3 hr / % AEDEMA INHIBITION 4 hr: rat paw, TNA 47 mg/Kg, PTP 69 mg/Kg (equivalent to 47 mg of the acid)
Source text: 1 By means of the test involving the carraghenine-provoked aedema of the paw of rat (Winter, C. A., Proceeding Soc. Exp. Biol. Med., III, 544, 1962) the antiinflammatory activities of phthalidyl 2-(3'-trifluormethylanilino)-pyridine-3-carboxylate (PTP) and 2(3'-trifluormethylanilino) nicotinic acid (TNA), were compared.

[3] = background statement; cited from earlier work
[4] = background statement; cited from earlier work; remark: listed apart in the source
[5] = oral tolerability; assay type: in vivo

## CCCCC1C(=O)N(c2ccccc2)N(c2ccccc2)C1=O [Phenylbutazone]
[1]
  ulceration score Increase: 2.3
  ulceration Score: 4.3

## O=C(O)c1cccnc1Nc1cccc(C(F)(F)F)c1 [TNA, 2(3'-trifluormethylanilino) nicotinic acid]
[2]
  % AEDEMA INHIBITION 3 hr: 25.6%
  % AEDEMA INHIBITION 4 hr: 31.8%
[1]
  ulceration score Increase: 1.3
  ulceration Score: 3.3
[3]
  ulcer provocation (in words): provoke ulcers
[4]
  antiinflammatory activity (in words): relevant antiinflammatory activity

## CC(=O)Oc1ccccc1C(=O)O [Acetylsalicylic acid]
[1]
  ulceration score Increase: 1.9
  ulceration Score: 3.9

## O=C1OC(OC(=O)c2cccnc2Nc2cccc(C(F)(F)F)c2)c2ccccc21 (stereo not drawn) [PTP, phthalidyl 2-(3'-trifluormethylanilino)-pyridine-3-carboxylate]
[5]
  oral tolerability (in words): orally well tolerated
[2]
  % AEDEMA INHIBITION 3 hr: 32%
  % AEDEMA INHIBITION 4 hr: 37.8%
[2]; relative to 2(3'-trifluormethylanilino) pyridine-3-carboxylic acid
  antiinflammatory activity compared with the acid (in words): antiinflammatory activity greater than the acid
[2]; summary statement
  anti-inflammatory activity (in words): anti-inflammatory activity
[1]
  ulceration Score: 2.0
  ulcerogenic effect (in words): less ulcerogenic than respective acid
[1]; listed as phthalidyl ester
  ulcerogenic effect (in words): without ulcerogenic effect
